In patent US10307413B2, “Tetrahydro- and dihydro-isoquinoline PRMT5 inhibitors and uses thereof” (Epizyme, Inc., priority 2013, dated 2019):
pEC50, pIC50: −log10 of the molar value.

Key:
PRMT5/MEP50 = PRMT5/MEP50 (Homo sapiens (Human), UniProt O14744); test: PRMT5 Biochemical Assay (PRMT5/MEP50 enzyme assay on peptide substrate, 3H-SAM Flashplate); conditions: PRMT5 biochemical assay
How it was run: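 Radiometric methylation of a biotin-tagged H4(1-15) peptide by human PRMT5/MEP50 from baculovirus/Sf9, with ³H-SAM incorporation read on streptavidin Flashplates. Buffer: Bicine pH 7.6, TCEP, BSG, Tween20; compound preincubated 30 min at 25 °C; stopped with 600 µM final unlabeled SAM. DMSO and SAH controls; IC50 from fitted % inhibition.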

[1] = test system: symmetric di-methyl arginine in Z-138 cells; test: Z-138 Methylation Assay (In Cell Western for symmetric di-methyl arginine and DNA content); assay type: cell-based; conditions: Homo sapiens, In Cell Western methylation, read-out: ICW EC50
How it was run: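 Z-138 cells (50,000 cells/mL) treated with compound 96 h at 37 °C, then fixed and stained for symmetric di-methyl arginine (800 nm) with DRAQ5 DNA counterstain (700 nm) on Licor Odyssey.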

Z-138 cell line = test: Z-138 Proliferation Assay (Cell Titer Glo, 5 days); assay type: cell-based; conditions: Homo sapiens, 120 h; Z-138 cells, 5 days, Cell Titer Glo; read-out: Proliferation EC50
How it was run: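 Z-138 cells exposed 5 days at 37 °C, 5% CO2 to nine-point 3-fold dilutions (final top 20 μM, 0.2% DMSO), in triplicate. Viability read as ATP by CellTiter-Glo luminescence; IC50 from 4-parameter fit of normalized dose-response curves.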

Sequence of PRMT5/MEP50 (O14744 other isoform, or with tags, fused parts or gaps): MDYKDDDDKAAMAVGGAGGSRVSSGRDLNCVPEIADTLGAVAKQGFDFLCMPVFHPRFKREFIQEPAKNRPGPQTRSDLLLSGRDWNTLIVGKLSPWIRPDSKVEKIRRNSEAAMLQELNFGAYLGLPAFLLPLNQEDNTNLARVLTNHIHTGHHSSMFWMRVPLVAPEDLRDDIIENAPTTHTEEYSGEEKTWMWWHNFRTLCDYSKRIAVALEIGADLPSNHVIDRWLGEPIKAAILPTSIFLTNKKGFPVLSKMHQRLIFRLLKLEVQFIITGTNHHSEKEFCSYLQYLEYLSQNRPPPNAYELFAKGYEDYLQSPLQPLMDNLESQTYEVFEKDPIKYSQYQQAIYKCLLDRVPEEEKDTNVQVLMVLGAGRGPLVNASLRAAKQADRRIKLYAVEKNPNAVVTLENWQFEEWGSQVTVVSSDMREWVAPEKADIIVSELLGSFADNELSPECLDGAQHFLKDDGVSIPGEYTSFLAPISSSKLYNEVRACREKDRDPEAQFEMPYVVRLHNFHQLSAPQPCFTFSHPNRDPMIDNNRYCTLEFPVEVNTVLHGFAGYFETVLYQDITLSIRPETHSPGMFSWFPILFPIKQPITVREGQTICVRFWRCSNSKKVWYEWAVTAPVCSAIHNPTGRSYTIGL
Sequence of PRMT5/MEP50 (Q9BQA1 other isoform, or with tags, fused parts or gaps partner): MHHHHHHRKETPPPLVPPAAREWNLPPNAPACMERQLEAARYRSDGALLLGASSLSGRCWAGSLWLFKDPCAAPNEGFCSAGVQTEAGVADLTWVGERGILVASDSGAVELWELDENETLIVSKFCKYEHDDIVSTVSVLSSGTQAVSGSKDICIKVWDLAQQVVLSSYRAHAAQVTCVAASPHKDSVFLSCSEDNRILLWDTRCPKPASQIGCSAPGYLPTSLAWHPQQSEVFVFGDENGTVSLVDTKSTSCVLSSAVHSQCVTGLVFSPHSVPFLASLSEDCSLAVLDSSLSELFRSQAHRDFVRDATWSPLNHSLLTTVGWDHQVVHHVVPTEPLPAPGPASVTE

Row | Compound | pIC50 (PRMT5/MEP50) | pEC50 [1] | pEC50 (Z-138 cell line)
1 | CC(=O)[C@H]1CC[C@H](Nc2cc(C(=O)NC[C@H](O)CN3CCc4ccccc4C3)ncn2)CC1 [Compound 600] | > 7.00 | > 7.00 | 5.00 to 6.00
2 | NC(=O)[C@H]1CC[C@H](Nc2cc(C(=O)NC[C@H](O)CN3CCc4ccccc4C3)ncn2)CC1 [Compound 601] | > 7.00 | > 7.00 | 6.00 to 7.00
3 | CNC(=O)[C@H]1CC[C@H](Nc2cc(C(=O)NC[C@H](O)CN3CCc4ccccc4C3)ncn2)CC1 [Compound 602] | > 7.00 | > 7.00 | 6.00 to 7.00
4 | CC(C)(O)CNCC1CN2C=NC(C(=O)NC[C@H](O)CN3CCc4ccccc4C3)=CC2=N1 (stereo partly drawn) [Compound 603] | 6.00 to 7.00 | < 6.00 | 5.00 to 6.00
5 | Cc1c(NC2COC2)ncnc1C(=O)NC[C@H](O)CN1CCc2ccccc2C1 [Compound 604] | > 7.00 | 6.00 to 7.00 | 5.00 to 6.00
6 | CC(=O)N1CC(Nc2cc(C(=O)NC[C@H](O)CN3CCc4ccccc4C3(C)C)ncn2)C1 [Compound 605] | 6.00 to 7.00 | 6.00 to 7.00 | < 5.30
7 | CC(=O)N1CCC(Nc2cc(C(=O)NC[C@H](O)CN3CCc4ccccc4C3(C)C)ncn2)CC1 [Compound 606] | 6.00 to 7.00 | 6.00 to 7.00 | < 5.30
8 | CC(C(O)CNC(=O)c1cc(NC2COC2)ncn1)N1CCc2ccccc2C1 (stereo not drawn) [Compound 607] | 5.00 to 6.00 | < 6.00 | < 5.30
9 | CC(=O)N1CC(Nc2cc(C(=O)NCC(O)C(C)N3CCc4ccccc4C3)ncn2)C1 (stereo not drawn) [Compound 608] | 6.00 to 7.00 | < 6.00 | < 5.30
10 | CC(=O)N1CCC(Nc2cc(C(=O)NCC(O)C(C)N3CCc4ccccc4C3)ncn2)CC1 (stereo not drawn) [Compound 609] | 6.00 to 7.00 | < 6.00 | < 5.30
11 | CC(=O)N1CCC(Nc2cc(C(=O)NC[C@H](O)CN3CCc4ccccc4C3)cc(N(C)C)n2)CC1 [Compound 610] | > 7.00 | > 7.00 | > 7.00
12 | CC(=O)N1CCC(Nc2cc(C(=O)NC[C@H](O)CN3CCc4ccccc4C3)cc(N3CCOCC3)n2)CC1 [Compound 611] | > 7.00 | > 7.00 | > 7.00
13 | CC(=O)N1CCC(Nc2cc(C(=O)NC[C@H](O)CN3CCc4ccccc4C3)cc(N3CCN(C)CC3)n2)CC1 [Compound 612] | > 7.00 | > 7.00 | > 7.00
14 | CC(=O)N1CCC(Nc2cc(C(=O)NC[C@H](O)CN3CCc4ccccc4C3)cc(N3CCN(C(C)=O)CC3)n2)CC1 [Compound 613] | > 7.00 | > 7.00 | 6.00 to 7.00
15 | COCCN(C)c1cc(C(=O)NC[C@H](O)CN2CCc3ccccc3C2)cc(NC2CCN(C(C)=O)CC2)n1 [Compound 614] | > 7.00 | > 7.00 | > 7.00
16 | CC(=O)[C@H]1CC[C@@H](Nc2cc(C(=O)NC[C@H](O)CN3CCc4ccccc4C3)ncn2)CC1 [Compound 615] | > 7.00 | > 7.00 | > 7.00
17 | CCS(=O)(=O)CCNCC1CN2C=NC(C(=O)NC[C@H](O)CN3CCc4ccccc4C3)=CC2=N1 (stereo partly drawn) [Compound 617] | 6.00 to 7.00 | < 6.00 | < 5.30
18 | CO[C@H]1CC[C@@H](N(C)c2cc(C(=O)NC[C@H](O)CN3CCc4ccccc4C3)ncn2)CC1 [Compound 618] | > 7.00 | > 7.00 | 5.00 to 6.00
19 | O=C(NC[C@H](O)CN1CCc2ccccc2C1)c1cnnc(OC2CCNCC2)c1 [Compound 619] | > 7.00 | 6.00 to 7.00 | 4.30 to 5.00
20 | CN1CCC(Oc2cc(C(=O)NC[C@H](O)CN3CCc4ccccc4C3)cnn2)CC1 [Compound 620] | > 7.00 | 6.00 to 7.00 | 4.30 to 5.00
